The subject of this test is N2a cells. Briefly: MTT proliferation assay, rapamycin mediated cell growth inhibition of N2a cells. The class given is cell-based, mouse. The conditions noted are these: FIG. 7. The source says:
FIG. 7 illustrates sensitivity of the N2a cell line to the growth inhibitory effect of rapamycin.
In a preferred embodiment, an MTT proliferation assay (see, e.g., van de Loosdrechet, et al., 1994, J. Immunol. Methods 174: 311-320; Ohno et al., 1991, J. Immunol. Methods 145:199-203; Ferrari et al., 1990, J. Immunol. Methods 131: 165-172; Alley et al., 1988, Cancer Res. 48: 589-601; Carmichael et al., 1987, Cancer Res. 47:936-942; Gerlier et al., 1986, J. Immunol. Methods 65:55-63; Mosmann, 1983, J. Immunological Methods 65:55-63) is used to screen for a candidate agent in conjunction with rapamycin to inhibit the growth of rapamycin resistant cells. The cells are treated with chosen concentrations of the candidate agent and rapamycin for 4 to 72 hours. The cells are then incubated with a suitable amount of 3-(4,5-dimethylthiazol-2-yl)-2,5-diphenyltetrazolium bromide (MTT) for 1-8 hours such that viable cells convert MTT into an intracellular deposit of insoluble formazan. After removing the excess MTT contained in the supernatant, a suitable MTT solvent, e.g., a DMSO solution, is added to dissolved the formazan. The concentration of […], which is proportional to the number of viable cells, is then measured by determining the optical density at […]. […]
(In general: Formazan colour is commonly taken as a measure of viable cells.)

Regarding `CO[C@H]1C[C@@H]2CC[C@@H](C)[C@@](O)(O2)C(=O)C(=O)N2CCCC[C@H]2C(=O)O[C@H]([C@H](C)C[C@@H]2CC[C@@H](O)[C@H](OC)C2)CC(=O)[C@H](C)/C=C(\C)[C@@H](O)[C@@H](OC)C(=O)[C@H](C)C[C@H](C)/C=C/C=C/C=C/1C` [rapamycin, 9,10,12,13,14,21,22,23,24,25,26,27,32,33,34,34a-hexadecahydro-9,27-dihydroxy-3-[2-(4-hydroxy-3-methoxycyclohexyl)-1-methylethyl]-10,21-dimethoxy-6,8,12,14,20,26-hexamethyl-23,27-epoxy-3H-pyrido[2,1-c][1,4]oxaazacyclohentricontine-1,5,11,28,29(4H,6H,31H)-pentone], the “rapamycin concentration at which the growth of N2a cells is completely inhibited” value (N2a cell line) is no less than 1 µM. Besides, the “rapamycin concentration at which N2a cells are sensitive to cell growth inhibition” value (mouse neuroblastoma N2a cells, MTT assay) was determined as 10 nM.

Source of the values: patent US20060240021A1, “Mammalian genes involved in rapamycin resistance and tumorgenesis: rapr7 genes” (priority 2002, published 2006).
